Patent US20040171073A1, “Compounds for modulation of cholesterol transport” (Massachusetts Institute of Technology, priority 2002, published 2004)
Where two headings read alike, the source gives them in different places.

Target: T1, murine SR-BI (Mus musculus, UniProt Q61009)
T1 construct: expressed in transfected cells; host or cells: ldlA-7 (LDL receptor deficient Chinese hamster ovary cells)
T1 sequence (Q61009 1-509): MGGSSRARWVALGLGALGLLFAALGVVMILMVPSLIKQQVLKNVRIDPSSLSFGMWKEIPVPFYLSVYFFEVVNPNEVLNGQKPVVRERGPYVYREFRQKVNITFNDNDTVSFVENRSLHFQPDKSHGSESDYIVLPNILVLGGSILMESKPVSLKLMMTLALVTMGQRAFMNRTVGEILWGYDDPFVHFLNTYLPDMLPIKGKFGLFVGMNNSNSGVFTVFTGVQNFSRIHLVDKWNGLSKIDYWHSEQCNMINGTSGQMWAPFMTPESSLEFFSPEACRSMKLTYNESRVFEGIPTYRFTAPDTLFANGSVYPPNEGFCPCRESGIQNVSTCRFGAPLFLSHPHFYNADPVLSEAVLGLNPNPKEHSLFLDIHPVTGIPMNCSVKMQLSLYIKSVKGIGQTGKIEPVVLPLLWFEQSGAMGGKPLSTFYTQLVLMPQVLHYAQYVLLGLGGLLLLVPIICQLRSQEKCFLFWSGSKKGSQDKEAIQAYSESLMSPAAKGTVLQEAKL
Assay: Uptake of DiI from DiI-HDL by ldlA[mSR-BI] cells (high throughput screen and concentration dependence)
Type: cell-based

[1] = Test 1, DiI uptake from DiI-HDL, compounds at nominal 10 micromolar, ldlA[mSR-BI] cells
[2] = Test 2, DiI uptake from DiI-HDL, compounds at nominal 10 micromolar, ldlA[mSR-BI] cells

Row | SMILES | ENDOHDL Test 1 (Test 1) | ENDOHDL Test 2 (Test 2) | also measured
1 | O=C(CC1=CCCCC1)Nc1cc([N+](=O)[O-])ccc1O [MIT 9952-167] | 1.32 | 1.18 | 
2 | O=C1CC(S/C(=N\c2ccccc2)Nc2ccccc2)C(=O)N1c1cccc2ccccc12 (centres unmarked) [MIT 9952-171] | 0.58 | 0.54 | 
3 | O=C(NC(NC(=S)Nc1cccc2ccccc12)C(Cl)(Cl)Cl)c1cccc([N+](=O)[O-])c1 (centres unmarked) [MIT 9952-325] |  |  | ENDOHDL Test 1 [1]: 0.56; ENDOHDL Test 2 [2]: 0.49
4 | Cc1ccc(N2SC(NS(=O)(=O)c3ccc(C)cc3)N=C2c2ccccc2)cc1 (centres unmarked) [MIT 9952-207] | 1.28 | 1.19 | 
5 | O=C(O)c1cc(C(=O)O)nc(C(=O)O)c1 [MIT 9952-319] |  |  | ENDOHDL Test 1 [1]: 1.13; ENDOHDL Test 2 [2]: 1.17
6 | CCN(CC)C(=O)N1CCN(c2ccc(Nc3ccnc4cc5ccccc5cc34)cc2)CC1 [MIT 9952-141] | 0.63 | 0.77 | 
7 | Br.NS(=O)(=O)c1ccc(Nc2nc(-c3ccc(Cl)cc3)cs2)cc1 [MIT 9952-293] |  |  | ENDOHDL Test 1 [1]: 0.69; ENDOHDL Test 2 [2]: 0.67
8 | O=C(COc1ccc(Cl)cc1)N/N=C/c1ccc(Cl)cc1 [MIT 9952-124] | 1.33 | 1.17 | 
9 | c1ccc(-c2cc3c(ccc4nonc43)[nH]2)cc1 [MIT 9952-262] | 0.53 | 0.45 | 
10 | COc1ccc(C(=O)Nc2ccc(C(C)C)cc2)cc1OC [MIT 9952-277] | 0.66 | 0.65 | 
11 | CC1(C)C(C(=O)OCC(=O)c2ccc([N+](=O)[O-])cc2)CCC1C(=O)OCC(=O)c1ccc([N+](=O)[O-])cc1 (centres unmarked) [MIT 9952-129] | 0.57 | 0.54 | 
12 | CCc1c2cccn2cc(C)[n+]1C.[I-] [MIT 9952-177] | 0.68 | 0.49 | 
13 | Cc1ccc2c(c1)/C(=C/c1ccc([N+](=O)[O-])cc1)c1cccnc1-2 [MIT 9952-246] | 0.56 | 0.52 | 
14 | C/C(=C\C(=O)NCCc1c[nH]c2ccccc12)C(=O)O [MIT 9952-76] | 1.25 | 1.26 | 
15 | C/C(=N\NC(N)=S)c1ccc[nH]1 [MIT 9952-309] |  |  | ENDOHDL Test 1 [1]: 0.7; ENDOHDL Test 2 [2]: 0.68
16 | O=C(Nc1cccc(C(F)(F)F)c1)c1cccc(C(=O)Nc2cccc(C(F)(F)F)c2)n1 [MIT 9952-189] | 0.56 | 0.58 | 
17 | CC(=O)c1c(C)n(-c2ccccc2)c2ccc(O)cc12 [MIT 9952-119] | 0.62 | 0.64 | 
18 | C=CC[n+]1c(C)n(CC)c2cc(Cl)c(Cl)cc21.[I-] [MIT 9952-169] | 0.54 | 0.6 | 
19 | O=[N+]([O-])c1ccc(N/N=C(/CS(=O)(=O)c2ccccc2)c2ccccc2)c([N+](=O)[O-])c1 [MIT 9952-200] | 0.73 | 0.8 | 
20 | C=C(N/N=C(\C)c1ccccc1C(=O)O)c1ccccc1 [MIT 9952-56] | 1.26 | 1.26 | 
21 | COc1c(Cl)cc(Cl)cc1C(=O)Nc1ccc(Br)cc1 [MIT 9952-155] | 0.69 | 0.47 | 

Row | SMILES | ENDOHDL Test 1 (Test 1) | ENDOHDL Test 2 (Test 2) | also measured
22 | CCOC(=O)c1c(/N=C/c2ccccc2[N+](=O)[O-])sc2c1CCCC2 [MIT 9952-187] | 0.33 | 0.46 | 
23 | [O-][n+]1onc2c3cc(-c4ccccc4)[nH]c3ccc21 [MIT 9952-59] | 0.35 | 0.44 | 
24 | O=C(Nc1cccc(Cl)c1)N1CCN(c2ccc([N+](=O)[O-])cc2)CC1 [MIT 9952-256] | 0.65 | 0.92 | 
25 | O=C(Nc1cc(Cl)ccc1Cl)c1cc(Br)ccc1NS(=O)(=O)c1ccc(Cl)c([N+](=O)[O-])c1 [MIT 9952-132] |  |  | ENDOHDL Test 1: 0.65; ENDOHDL Test 2: 0.46
26 | Cc1cc(C)c(/C=N/N=C/c2c(C)cc(C)cc2C)c(C)c1 [MIT 9952-287] |  |  | ENDOHDL Test 1 [1]: 1.18; ENDOHDL Test 2 [2]: 1.32
27 | O=C(NC(NC(=S)Nc1cccc([N+](=O)[O-])c1)C(Cl)(Cl)Cl)C(c1ccccc1)c1ccccc1 (centres unmarked) [MIT 9952-327] |  |  | ENDOHDL Test 1 [1]: 0.4; ENDOHDL Test 2 [2]: 0.45
28 | O=C(/C=C/c1ccccc1)NC(NC(=S)Nc1cccc([N+](=O)[O-])c1)C(Cl)(Cl)Cl (centres unmarked) [MIT 9952-100] | 0.5 | 0.51 | 
29 | CN(CC#CC(O)(c1ccccc1)c1ccccc1)C1CCCCC1 [MIT 9952-72] | 1.07 | 1.12 | 
30 | COc1ccc(C(=O)NC(Nc2cccc3ccccc23)C(Cl)(Cl)Cl)cc1 (centres unmarked) [MIT 9952-131] | 0.56 | 0.52 | 
31 | CCOC(=O)c1c(NC(=O)c2ccccc2)sc(NC(=O)c2ccccc2)c1C(=O)OCC [MIT 9952-215] | 0.57 | 0.53 | 
32 | O=C(N/N=C/c1ccc(O)cc1)C1CC1(c1ccccc1)c1ccccc1 (centres unmarked) [MIT 9952-87] | 0.67 | 0.67 | 
33 | O=C1CC(N2CCOCC2)C(=O)N1c1ccc(Br)cc1 (centres unmarked) [MIT 9952-96] | 1.32 | 1.17 | 
34 | O=C(Nc1ccc(Cl)c(Cl)c1)c1ccccc1Br [MIT 9952-268] | 0.59 | 0.65 | 
35 | Cc1ccc2c(c1Br)/C(=N/NC(=O)Nc1ccccc1)C(=O)N2 [MIT 9952-130] | 0.62 | 0.65 | 
36 | COc1ccc2c(c1)c(C(C)=O)c(C)n2-c1ccccc1 [MIT 9952-335] |  |  | ENDOHDL Test 1 [1]: 0.57; ENDOHDL Test 2 [2]: 0.49
37 | O=C(NNC(=O)c1cccc2ccccc12)c1ccc(NC(=O)c2cccc3ccccc23)cc1 [MIT 9952-329] |  |  | ENDOHDL Test 1 [1]: 0.57; ENDOHDL Test 2 [2]: 0.53
38 | CC(C)=C/C(=N\Nc1ccc([N+](=O)[O-])cc1[N+](=O)[O-])C1CC=CCC1 (centres unmarked) [MIT 9952-288] |  |  | ENDOHDL Test 1 [1]: 0.59; ENDOHDL Test 2 [2]: 0.52
39 | O=C1CC(N2CCOCC2)C(=O)N1c1ccc(Br)cc1 (centres unmarked) [MIT 9952-81] | 1.32 | 1.17 | 
40 | CCCCN1CCC(O)(c2ccccc2)C(C(=O)c2ccccc2)C1 (centres unmarked) [MIT 9952-142] | 1.28 | 1.32 | 
41 | COc1ccc(N2C(=O)CC(N3CCCCC3)C2=O)cc1 (centres unmarked) [MIT 9952-16] | 1.25 | 1.26 | 
42 | CC1(C)CC(=O)C(=Cc2c(Cl)ccc3ccccc23)C(=O)C1 [MIT 9952-157] | 1.26 | 1.21 | 

Row | SMILES | ENDOHDL Test 1 (Test 1) | ENDOHDL Test 2 (Test 2) | also measured
43 | Cc1cccc(/C=N/Nc2nc(C)nc(C)n2)c1 [MIT 9952-270] | 0.66 | 0.66 | 
44 | O=C(Nc1cc2c(cc1C(=O)c1ccccc1)OCCO2)c1ccc(Br)cc1 [MIT 9952-188] | 0.61 | 0.58 | 
45 | COc1ccc(OC)c(NC(=O)c2cc([N+](=O)[O-])c(C)c([N+](=O)[O-])c2)c1 [MIT 9952-233] | 0.59 | 0.33 | 
46 | Cc1cccc(N2C(=O)CC(N3CCOCC3)C2=O)c1 (centres unmarked) [MIT 9952-80] | 1.34 | 1.2 | 
47 | O=C(N/N=C/c1cc2c(cc1Br)OCO2)c1cccc(Cl)c1 [MIT 9952-281] |  |  | ENDOHDL Test 1 [1]: 0.59; ENDOHDL Test 2 [2]: 0.34
48 | Nc1cc2cccnc2c2ncccc12 [MIT 9952-341] |  |  | ENDOHDL Test 1 [1]: 0.61; ENDOHDL Test 2 [2]: 0.51
49 | COc1cccc(NC(=O)c2sc(-c3ccccc3)nc2-c2ccc([N+](=O)[O-])cc2)c1 [MIT 9952-118] | 0.51 | 0.63 | 
50 | O=C(/C=C/c1ccccc1)Nc1cccc(Cl)c1Cl [MIT 9952-263] | 0.66 | 0.65 | 
51 | C#CCOC(=O)CCCC(=O)Nc1ccccc1[N+](=O)[O-] [MIT 9952-191] | 1.27 | 1.98 | 
52 | CCN(CC)CC(=O)Nc1ccc2c(c1)N(C(=O)c1ccccc1)c1ccccc1CC2.Cl [MIT 9952-178] | 0.4 | 0.38 | 
53 | CCCCOCCC1CCC/C1=N\NC(N)=S (centres unmarked) [MIT 9952-249] | 0.7 | 0.57 | 
54 | NSCc1nc(-c2ccc(Cl)cc2)no1 [MIT 9952-64] | 0.58 | 0.58 | 
55 | COc1ccccc1C(=O)NC(Nc1cccc2ccccc12)C(Cl)(Cl)Cl (centres unmarked) [MIT 9952-134] | 0.58 | 0.59 | 
56 | NC(=O)N/N=C/c1ccc(-c2ccc([N+](=O)[O-])cc2)o1 [MIT 9952-326] |  |  | ENDOHDL Test 1 [1]: 0.55; ENDOHDL Test 2 [2]: 0.53
57 | COc1cccc(C(=O)N/N=C/c2ccc(Cl)cc2Cl)c1 [MIT 9952-285] |  |  | ENDOHDL Test 1 [1]: 0.57; ENDOHDL Test 2 [2]: 0.53
58 | O=C(Nc1ccc(Oc2ccc(Cl)c3cccnc23)c(Cl)c1)c1ccc([N+](=O)[O-])cc1 [MIT 9952-172] | 0.55 | 0.56 | 
59 | CCOC(=O)c1sc(-c2ccccc2)nc1-c1ccc([N+](=O)[O-])cc1 [MIT 9952-165] | 0.57 | 0.6 | 
60 | CN(C)/C=N/C(=O)CN1CCCC1=O [MIT 9952-148] | 1.44 | 1.32 | 
61 | O=C1C(=O)c2ccc(Oc3ccc([N+](=O)[O-])cc3)c3cccc1c23 [MIT 9952-95] | 0.79 | 0.73 | 
